In patent US11691949B2, “Quinoline sulfonamide compounds and their use as antibacterial agents” (OTAGO INNOVATION LIMITED, priority 2017, dated 2023):
In brackets after ≈: the same amount, converted by molar mass. Where a name gives a salt, the structure may show the parent alone. Read-outs that look alike come from different tables or passages of the source.

Legend:
Type in all cases: cell-based
E. coli ATCC 10596 = assay: MIC by broth microdilution, E. coli; settings: Escherichia coli
How it was run: (§1)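 Two-fold serial dilutions were tested in broth at ~5×10^5 cfu/mL: S. aureus in TSB or CAMHB, E. coli in LB or CAMHB, with 50 μM zinc sulphate added as required. After 24 h at 37° C, 200 rpm, MIC was the lowest concentration showing no growth by OD600.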

S. aureus ATCC 6538 [1] = assay: MBC by Miles-Misra drop-plate method, S. aureus; settings: Staphylococcus aureus
Experimental: (§2) Antibacterial susceptibility testing was performed in triplicate (biological) by measuring minimum inhibitory concentrations (MICs) by broth microdilution in 96-well flat bottom microtiter plates (ThermoFisher Scientific, New Zealand). S. uberis ATCC 19436, S. aureus ATCC 6538, or E. coli ATCC 10596 cells grown overnight were diluted to an OD600 of approximately 0.025, so that the final concentration of cells in the MIC assay was approximately 5×10^5 cfu/mL in media as follows: S. uberis; Todd Hewitt Broth (THB), S. aureus; Tryptic Soy Broth (TSB) and Cation Adjusted Muller Hinton Broth (CAMHB), and E. coli; Lysogeny Borth (LB) and CAMHB, before being dispensed into microtiter wells. As required additional sterile Zinc Sulphate (Heptahydrate) was supplemented into the media, so the final concentration was 50 μM. Test compounds were added to starting wells and two-fold serial dilutions were undertaken to generate a range of inhibitor concentrations at a final volume of 200 μl. Media and test compound-free (untreated) controls were included in each microtiter plate in triplicate. After 24 h incubation at 37° C. and 200 rpm, the OD600 of wells were read using a Varioskan Flash plate reader (ThermoFisher Scientific, New Zealand). The MIC was reported as the lowest concentration of the test compound for which no growth occurred, as determined by OD600 readings. The minimum bactericidal concentration (MBC) was determined using the Miles-Misra drop-plate method to measure the viability of cells in response to test compound challenge.

E. coli ATCC 10536 = assay: MBC by Miles-Misra drop-plate method, E. coli; settings: Escherichia coli
Experimental: as §2

S. aureus ATCC 6538 [2] = assay: MIC by broth microdilution, S. aureus; settings: Staphylococcus aureus
How it was run: as §1

S. uberis ATCC 19436 [3] = assay: MBC by Miles-Misra drop-plate method, S. uberis; settings: Streptococcus uberis
Experimental: as §2

S. uberis ATCC 19436 [4] = assay: MIC by broth microdilution, S. uberis; settings: Streptococcus uberis
How it was run: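 The MIC against S. uberis ATCC 19436 was the lowest compound concentration showing no growth by OD600 after 24 h at 37° C. with 200 rpm shaking. Cultures grown overnight were adjusted to OD600 ~0.025 so wells held approximately 5×10^5 cfu/mL in THB. Two-fold dilution series were made at a final volume of 200 μl. Media and untreated controls were run in triplicate on each plate.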

[5] = ATCC 10536 / ATCC 10596, No Zinc, read-out: E. coli ATCC 10536 MIC
[6] = ATCC 10536 / ATCC 10596, Zinc (50 μM), read-out: E. coli ATCC 10536 MIC
[7] = ATCC6538, No Zinc, read-out: S. aureus ATCC 6538 MBC
[8] = ATCC6538, Zinc (50 μM), read-out: S. aureus ATCC 6538 MBC
[9] = ATCC10536, No Zinc, read-out: E. coli ATCC 10536 MBC
[10] = ATCC10536, Zinc (50 μM), read-out: E. coli ATCC 10536 MBC
[11] = ATCC6538, No Zinc, read-out: S. aureus ATCC 6538 MIC
[12] = ATCC6538, Zinc (50 μM), read-out: S. aureus ATCC 6538 MIC
[13] = ATCC19436, No Zinc, read-out: S. uberis ATCC 19436 MBC
[14] = ATCC19436, Zinc (50 μM), read-out: S. uberis ATCC 19436 MBC
[15] = ATCC19436, No Zinc, read-out: S. uberis ATCC 19436 MIC
[16] = ATCC19436, Zinc (50 μM), read-out: S. uberis ATCC 19436 MIC
[17] = ATCC 10536 / ATCC 10596, read-out: E. coli ATCC 10536 MIC, No Zinc
[18] = ATCC 10536 / ATCC 10596, read-out: E. coli ATCC 10536 MIC, Zinc (50 μM)
[19] = ATCC6538, read-out: S. aureus ATCC 6538 MBC, No Zinc
[20] = ATCC6538, read-out: S. aureus ATCC 6538 MBC, Zinc (50 μM)
[21] = ATCC10536, read-out: E. coli ATCC 10536 MBC, No Zinc
[22] = ATCC10536, read-out: E. coli ATCC 10536 MBC, Zinc (50 μM)
[23] = ATCC6538, read-out: S. aureus ATCC 6538 MIC, No Zinc
[24] = ATCC6538, read-out: S. aureus ATCC 6538 MIC, Zinc (50 μM)
[25] = ATCC19436, read-out: S. uberis ATCC 19436 MBC, No Zinc
[26] = ATCC19436, read-out: S. uberis ATCC 19436 MBC, Zinc (50 μM)
[27] = ATCC19436, read-out: S. uberis ATCC 19436 MIC, No Zinc
[28] = ATCC19436, read-out: S. uberis ATCC 19436 MIC, Zinc (50 μM)

Compound | MIC (E. coli ATCC 10596; [5]) [µg/mL] | MIC (E. coli ATCC 10596; [6]) [µg/mL] | MBC (S. aureus ATCC 6538 [1]; [7]) [µg/mL] | MBC (S. aureus ATCC 6538 [1]; [8]) [µg/mL] | MBC (E. coli ATCC 10536; [9]) [µg/mL] | MBC (E. coli ATCC 10536; [10]) [µg/mL] | MIC (S. aureus ATCC 6538 [2]; [11]) [µg/mL] | MIC (S. aureus ATCC 6538 [2]; [12]) [µg/mL] | MBC (S. uberis ATCC 19436 [3]; [13]) [µg/mL] | MBC (S. uberis ATCC 19436 [3]; [14]) [µg/mL] | MIC (S. uberis ATCC 19436 [4]; [15]) [µg/mL] | MIC (S. uberis ATCC 19436 [4]; [16]) [µg/mL] | MIC (E. coli ATCC 10596; [17]) [µg/mL] | MIC (E. coli ATCC 10596; [18]) [µg/mL] | MBC (S. aureus ATCC 6538 [1]; [19]) [µg/mL] | MBC (S. aureus ATCC 6538 [1]; [20]) [µg/mL] | MBC (E. coli ATCC 10536; [21]) [µg/mL] | MBC (E. coli ATCC 10536; [22]) [µg/mL] | MIC (S. aureus ATCC 6538 [2]; [23]) [µg/mL] | MIC (S. aureus ATCC 6538 [2]; [24]) [µg/mL] | also measured
O=S(=O)(Nc1cccc2ccc(CNCCCO)nc12)c1ccc(C(F)(F)F)cc1 [ZDR091, N-(2-(((3-Hydroxypropyl)amino)methyl)quinolin-8-yl)-4-(trifluoromethyl)benzenesulfonamide] | 256 (≈ 583 µM) | 256 (≈ 583 µM) | > 256 | 128 (≈ 291 µM) | 256 (≈ 583 µM) | 128 (≈ 291 µM) | 64 (≈ 146 µM) | 32 (≈ 72.8 µM) | 16 (≈ 36.4 µM) | 0.5 (≈ 1.14 µM) | 32 (≈ 72.8 µM) | 0.125 (≈ 0.284 µM) |  |  |  |  |  |  |  |  | 
CN(C)CCCNCc1ccc2cccc(NS(=O)(=O)c3ccc(C(F)(F)F)cc3)c2n1 [ZDR090, N-(2-(((3-(Dimethylamino)propyl)amino)methyl)quinolin-8-yl)-4-(trifluoromethyl)benzenesulfonamide di-trifluoroacetate] |  |  |  |  |  |  |  |  |  |  |  |  | 16 (≈ 34.3 µM) | 16 (≈ 34.3 µM) | 16 (≈ 34.3 µM) | 32 (≈ 68.6 µM) | 16 (≈ 34.3 µM) | 16 (≈ 34.3 µM) | 16 (≈ 34.3 µM) | 16 (≈ 34.3 µM) | MBC (S. uberis ATCC 19436 [3]; [25]): 8 µg/mL (≈ 17.1 µM); MBC (S. uberis ATCC 19436 [3]; [26]): 0.5 µg/mL (≈ 1.07 µM); MIC (S. uberis ATCC 19436 [4]; [27]): 4 µg/mL (≈ 8.57 µM); MIC (S. uberis ATCC 19436 [4]; [28]): 0.5 µg/mL (≈ 1.07 µM)
N=C(N)NCc1ccc2cccc(NS(=O)(=O)c3ccc(C(F)(F)F)cc3)c2n1 [ZDR187, N-(2-(Guanidinomethyl)quinolin-8-yl)-4-(trifluoromethyl)benzenesulfonamide trifluoroacetate] |  |  |  |  |  |  |  |  |  |  |  |  | 32 | 16 | 32 | 32 | 64 | 16 | 8 | 8 | MBC (S. uberis ATCC 19436 [3]; [25]): 16 µg/mL; MBC (S. uberis ATCC 19436 [3]; [26]): 8 µg/mL; MIC (S. uberis ATCC 19436 [4]; [27]): 16 µg/mL; MIC (S. uberis ATCC 19436 [4]; [28]): 0.5 µg/mL
O=S(=O)(Nc1cccc2ccc(CNCCc3ccccn3)nc12)c1ccc(C(F)(F)F)cc1 [ZDR095, N-(2-(((2-(Pyridin-2-yl)ethyl)amino)methyl)quinolin-8-yl)-4-(trifluoromethyl)benzenesulfonamide] | 128 (≈ 263 µM) | > 256 | > 128 | > 256 | 128 (≈ 263 µM) | 256 (≈ 526 µM) | 64 (≈ 132 µM) | 8 (≈ 16.4 µM) | > 256 | 1 (≈ 2.06 µM) | > 256 | 0.125 (≈ 0.257 µM) |  |  |  |  |  |  |  |  | 
CN(C)CCCNC(=O)c1ccc2cccc(NS(=O)(=O)c3ccc(C(F)(F)F)cc3)c2n1 [ZDR224, N-(3-(Dimethylamino)propyl)-8-((4-(trifluoromethyl)phenyl)sulfonamido)quinoline-2-carboxamide trifluoroacetate] |  |  |  |  |  |  |  |  |  |  |  |  | 256 | 256 | 128 | 32 | > 256 | 256 | 128 | 32 | MBC (S. uberis ATCC 19436 [3]; [25]): 64 µg/mL; MBC (S. uberis ATCC 19436 [3]; [26]): 8 µg/mL; MIC (S. uberis ATCC 19436 [4]; [27]): 64 µg/mL; MIC (S. uberis ATCC 19436 [4]; [28]): 16 µg/mL
O=S(=O)(Nc1cccc2ccc(CNc3ccccc3O)nc12)c1ccc(C(F)(F)F)cc1 [ZDR171, N-(2-(((2-Hydroxyphenyl)amino)methyl)quinolin-8-yl)-4-(trifluoromethyl)benzenesulfonamide] | > 256 | > 256 | 16 (≈ 33.8 µM) | 32 (≈ 67.6 µM) | > 256 | > 256 | 4 (≈ 8.45 µM) | 4 (≈ 8.45 µM) | 8 (≈ 16.9 µM) | 0.5 (≈ 1.06 µM) | 8 (≈ 16.9 µM) | 0.5 (≈ 1.06 µM) |  |  |  |  |  |  |  |  | 
O=S(=O)(Nc1cccc2ccc(CNCCCN3CCOCC3)nc12)c1ccc(C(F)(F)F)cc1 [ZDR116, N-(2-(((3-Morpholinopropyl)amino)methyl)quinolin-8-yl)-4-(trifluoromethyl)benzenesulfonamide] | > 256 | > 256 | 128 (≈ 252 µM) | > 256 | > 256 | > 256 | 64 (≈ 126 µM) | 64 (≈ 126 µM) | 64 (≈ 126 µM) | 2 (≈ 3.93 µM) | 32 (≈ 62.9 µM) | 2 (≈ 3.93 µM) |  |  |  |  |  |  |  |  | 
